Test systems include ACHN; COLO 205; NCI-H460; MCF7; Hs-578T; NCI-H23; RPMI-8226; UO-31; HCT-116; SK-MEL-5; MDA-N; PC-3; HCT-15; A498; SF-268; KM12; UACC-257; CAKI-1; HOP-92; NCI-H226.
Holding throughout (assay): NCI anticancer screen, dose series, 48 h

The structures appear in SMILES notation.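 The compound was tested at five concentrations on cells cultured in 96-well plates, with a 48-hour exposure period. Abbreviation: GI50, concentration required for 50% inhibition of growth.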 Activity calls are given as the source filed them. Cut-off read from the data, not from the text of the source: active = GI50 up to about 1.1 µM and inactive = higher. A value given as a limit tells only on which side of the number the result lay.

Take `N#Cc1cccc(C2ON=C(c3ccc([N+](=O)[O-])cc3)N2C23CC4CC(CC(C4)C2)C3)c1` (stereo not given): the GI50 with ACHN was > 100 µM (inactive); in the test on COLO 205, > 100 µM (inactive); with NCI-H460 it was > 100 µM (inactive); in the test on MCF7, 34.4 µM (inactive); in the test on Hs-578T it was 39.8 µM (inactive); with NCI-H23, > 100 µM (inactive). Further, the GI50 in the test on RPMI-8226 is > 100 µM (inactive); with UO-31 it was 24.1 µM (inactive); with HCT-116 it was 6.21 µM (inactive); with SK-MEL-5, 43.6 µM (inactive); in the test on MDA-N, > 100 µM (inactive); with PC-3, 5.2 µM (inactive). Further, the GI50 is 66.8 µM in the test with HCT-15; > 100 µM (inactive) in the test on A498; > 100 µM (inactive) in the test with SF-268; > 100 µM (inactive) in the test on KM12; > 100 µM (inactive) in the test on UACC-257; 11.7 µM (inactive) with CAKI-1. Also, the figures for the GI50 in the test on HOP-92 and in the test with NCI-H226 were 69.2 µM (inactive) and > 100 µM (inactive), respectively.

Regarding `COc1ccc(OC)c(CCc2cc(OC)ccc2OC)c1`, the GI50 in the test on ACHN is > 6.93 µM (inactive); with COLO 205 it was 1.29 µM (inactive); in the test on NCI-H460, 1.71 µM (inactive); with MCF7, 0.358 µM (active); with Hs-578T it was 2.69 µM (inactive); with NCI-H23, 3.18 µM (inactive). Further, the GI50 in the test on RPMI-8226 was 2.82 µM (inactive); in the test on UO-31 it was 5.55 µM (inactive); in the test on HCT-116, 0.59 µM (active); in the test with SK-MEL-5, 0.324 µM (active); with MDA-N, 0.234 µM (active); with PC-3, 2.3 µM (inactive). Besides, the GI50 in the test with HCT-15 is 0.34 µM; in the test on A498 it was 4.48 µM (inactive); in the test with SF-268, 7.76 µM (inactive); with KM12, 0.12 µM (active); with UACC-257, 5.38 µM (inactive); in the test on CAKI-1, 3.92 µM (inactive). Further, the GI50 in the test with HOP-92 is > 10 µM (inactive); in the test on NCI-H226, 5.33 µM (inactive).
